Results: ChEMBL document CHEMBL6092181, “Design, synthesis, and biological evaluation of imidazo[4,5-b]pyridine mitochondrial uncouplers for the treatment of metabolic dysfunction-associated steatohepatitis (MASH)” (Eur J Med Chem, 2024)
Activity calls are given as the source filed them. The calls are words filed in the database; no cut-off is given here.

What was measured:
[1] = system: L6; experiment: Uncoupling activity in rat L6 myoblasts assessed as oxygen consumption rate incubated over 90 mins; type: functional, cell-based
[2] = system: L6; experiment: Uncoupling activity in rat L6 myoblasts assessed as oxygen consumption rate incubated for 2 mins relative to N5,N6-bis(2-fluorophenyl)-[1,2,5]oxadiazolo[3,4-b]pyrazine-5,6-diamine; type: functional
[3] = Half-life in C57BL/6 mouse at 10 mg/kg, po by LC-MS/MS method; type: ADME, organism-based; settings: in vivo
[4] = system: Mus musculus; experiment: Anti-MASH activity in GAN-diet induced metabolic dysfunction associated steatohepatitis in C57BL/6 mouse assessed as change in liver size at 100 to 300 mg/kg, po administered daily measured after 4 weeks; type: functional, organism-based; settings: dose 100-300 mg/kg
[5] = Toxicity in C57BL/6 mouse assessed as change in body weight at 30 to 1000 mg/kg, po measured after 24 hrs; type: organism-based; settings: in vivo, dose 30-1000 mg/kg
[6] = Induction of respiration in rat L6 cells assessed as oxygen consumption rate at 3.3 uM pretreated with compound followed by N5,N6-bis(2-fluorophenyl)-[1,2,5]oxadiazolo[3,4-b]pyrazine-5,6-diamine addition; type: functional
[7] = Toxicity in C57BL/6 mouse assessed as change in body temperature at 30 to 1000 mg/kg, po measured after 24 hrs; type: organism-based; settings: in vivo, dose 30-1000 mg/kg
[8] = system: Mus musculus; experiment: Anti-MASH activity in GAN-diet induced metabolic dysfunction associated steatohepatitis in C57BL/6 mouse assessed as change in plasma triglyceride level at 100 to 300 mg/kg, po administered daily measured after 4 weeks; type: functional, organism-based; settings: dose 100-300 mg/kg
[9] = Cmax in C57BL/6 mouse at 10 mg/kg, po by LC-MS/MS method; type: ADME, organism-based; settings: in vivo
[10] = system: Mus musculus; experiment: Anti-MASH activity in GAN-diet induced metabolic dysfunction associated steatohepatitis in C57BL/6 mouse assessed as change in plasma cholesterol level at 100 to 300 mg/kg, po administered daily measured after 4 weeks; type: functional, organism-based; settings: dose 100-300 mg/kg
[11] = system: L6; experiment: Uncoupling activity in rat L6 cells assessed as increase in oxygen consumption rate incubated for 40 mins in presence of rotenone; type: functional, cell-based
[12] = Toxicity in C57BL/6 mouse assessed as change in body weight at 100 to 300 mg/kg, po administered daily and measured after 31 days; type: organism-based; settings: in vivo, 744 h, dose 100-300 mg/kg, time 31 day
[13] = Toxicity in C57BL/6 mouse assessed as change in appetite at 30 to 1000 mg/kg, po measured after 24 hrs; type: organism-based; settings: in vivo, dose 30-1000 mg/kg
[14] = Cmax in C57BL/6 mouse at 30 mg/kg, po by LC-MS/MS method; type: ADME, organism-based; settings: in vivo
[15] = system: Mus musculus; experiment: Anti-MASH activity in GAN-diet induced metabolic dysfunction associated steatohepatitis in C57BL/6 mouse assessed as decrease in liver triglyceride level at 100 to 300 mg/kg, po administered daily measured after 4 weeks; type: functional, organism-based; settings: dose 100-300 mg/kg
[16] = Induction of respiration in rat L6 cells assessed as oxygen consumption rate at 3.3 uM; type: functional
[17] = system: L6; experiment: Uncoupling activity in rat L6 cells assessed as increase in oxygen consumption rate incubated for 40 mins in presence of antimycin A; type: functional, cell-based
[18] = Half-life in C57BL/6 mouse at 30 mg/kg, po by LC-MS/MS method; type: ADME, organism-based; settings: in vivo
[19] = Toxicity in C57BL/6 mouse assessed as adverse effect at 30 to 1000 mg/kg, po measured after 24 hrs; type: organism-based; settings: in vivo, dose 30-1000 mg/kg
[20] = system: L6; experiment: Cytotoxicity against rat L6 cells; type: toxicity, cell-based
[21] = Rattus norvegicus, L6, 1.5 h, read-out: EC50

SMILES | EC50 [1, 21] | Activity [2] | further results
FC(F)(F)Oc1cccc(-c2ccc3nc(C(F)(F)F)[nH]c3n2)c1 | 1.4 µM | 8% | 
FC(F)(F)c1ccc(-c2ccc3nc(C(F)(F)F)[nH]c3n2)cc1 | 1 µM | 11% | 
FC(F)(F)Oc1cccc(-c2ccnc3[nH]c(C(F)(F)F)nc23)c1 | 0.83 µM | 41% | half-life [3]: 1.3 h; Activity [4]: inactive; Activity [5]: Non-toxic; Activity [6]: 300%; Activity [7]: Non-toxic; Activity [8]: inactive; Cmax [9]: 22 µM; Activity [10]: inactive; Activity [11]: inactive; Activity [12]: Non-toxic; Activity [13]: Non-toxic; Cmax [14]: 34.7 µM; Activity [15]: Active; Activity [16]: 200%; Activity [17]: inactive; half-life [18]: 3.7 h; Activity [19]: Non-toxic
FC(F)(F)c1nc2c(Cl)ccnc2[nH]1 | 29.8 µM | 14% | 
FC(F)(F)c1cccc(-c2ccc3nc(C(F)(F)F)[nH]c3n2)c1 | 3 µM | 36% | 
FC(F)(F)c1cc(-c2ccnc3[nH]c(C(F)(F)F)nc23)cc(C(F)(F)F)c1 | > 100 µM | 45% | 
FC(F)(F)Oc1ccc(-c2ccc3nc(C(F)(F)F)[nH]c3n2)cc1 | 1.3 µM | 2% | 
Fc1ccccc1-c1ccc2nc(C(F)(F)F)[nH]c2n1 | 16 µM | 35% | 
FC(F)(F)c1nc2c(-c3ccc(Cl)cc3)ccnc2[nH]1 | > 100 µM | 22% | 
Fc1cc(F)cc(-c2ccc3nc(C(F)(F)F)[nH]c3n2)c1 | 3.8 µM | 32% | 
Fc1cccc(-c2ccnc3[nH]c(C(F)(F)F)nc23)c1 | 8.2 µM | 32% | 
FC(F)(F)c1ccc(-c2ccnc3[nH]c(C(F)(F)C(F)(F)F)nc23)cc1 | 4.69 µM | 31% | 
Fc1ccc(-c2ccnc3[nH]c(C(F)(F)F)nc23)cc1F | 4.4 µM | 34% | 
FC(F)(F)c1nc2c(-c3ccccc3)ccnc2[nH]1 |  |  | EC50 ([1]; l6): Not_active
FC(F)(F)c1ccc(-c2ncnc3[nH]c(C(F)(F)F)nc23)cc1 | 1.2 µM | 45% | 
Fc1ccc(Oc2ccc3nc(C(F)(F)F)[nH]c3n2)c(F)c1 | 12.6 µM | 43% | 
CC(=O)c1ccc(-c2ccnc3[nH]c(C(F)(F)F)nc23)cc1 | > 100 µM | 21% | 
FC(F)(F)c1cc(-c2ncnc3[nH]c(C(F)(F)F)nc23)cc(C(F)(F)F)c1 |  |  | Activity [20]: Toxic
Fc1cccc(Oc2ccc3nc(C(F)(F)F)[nH]c3n2)c1 | 10.3 µM | 47% | 
FC(F)(F)Oc1ccc(-c2ccnc3[nH]c(C(F)(F)F)nc23)cc1 | 0.48 µM | 19% | 
COc1ccc(-c2ccnc3[nH]c(C(F)(F)F)nc23)cc1 |  |  | EC50 ([1]; l6): Not_active
FC(F)(F)c1ccc(-c2ccnc3[nH]c(C(F)(F)F)nc23)cn1 | 2.6 µM | 25% | 
Fc1cccc(Oc2ccc3nc(C(F)(F)F)[nH]c3n2)c1F | 7.1 µM | 39% | 
Fc1cc(F)cc(-c2ccnc3[nH]c(C(F)(F)F)nc23)c1 | 1.5 µM | 42% | half-life [3]: 2.8 h; Cmax [9]: 37 µM

SMILES | EC50 [1, 21] | Activity [2] | further results
FC(F)(F)c1cccc(-c2ncnc3[nH]c(C(F)(F)F)nc23)c1 | 1.2 µM | 46% | 
Fc1cc(F)cc(-c2ncnc3[nH]c(C(F)(F)F)nc23)c1 | 4 µM | 54% | 
CC(F)(F)c1nc2c(-c3ccc(C(F)(F)F)cc3)ccnc2[nH]1 |  |  | EC50 ([1]; l6): Not_active
FC(F)c1nc2c(-c3ccc(C(F)(F)F)cc3)ccnc2[nH]1 |  |  | EC50 ([1]; l6): Not_active
Fc1ccccc1Oc1ccc2nc(C(F)(F)F)[nH]c2n1 | 30.8 µM | 30% | 
Fc1cc(F)cc(Oc2ccc3nc(C(F)(F)F)[nH]c3n2)c1 | 3.9 µM | 45% | 
Fc1ccc(F)c(-c2ccnc3[nH]c(C(F)(F)F)nc23)c1 | 15 µM | 54% | 
Fc1ccccc1-c1ccnc2[nH]c(C(F)(F)F)nc12 | 19.4 µM | 18% | 
FC(F)(F)c1nc2c(-c3cccc(Cl)c3)ccnc2[nH]1 | 2 µM | 32% | half-life [3]: 3 h; Cmax [9]: 18 µM
FC(F)(F)c1cccc(-c2ccnc3[nH]c(C(F)(F)F)nc23)c1 | 0.85 µM | 42% | half-life [3]: 5.5 h; Cmax [9]: 28 µM
Fc1cc(F)cc(Oc2ccnc3[nH]c(C(F)(F)F)nc23)c1 | 11.9 µM | 43% | 
FC(F)(F)c1ccc(-c2ccnc3[nH]c(C(F)(F)F)nc23)cc1 | 1.3 µM | 46% | half-life [3]: 3.4 h; Cmax [9]: 8 µM
Fc1ccc(-c2ccc3nc(C(F)(F)F)[nH]c3n2)cc1 | 15 µM | 42% | 
Oc1ccc(-c2ccnc3[nH]c(C(F)(F)F)nc23)cc1 |  |  | EC50 ([1]; l6): Not_active
FC(F)(F)c1ccc(-c2ccc3nc(C(F)(F)F)[nH]c3n2)cn1 | 11.9 µM | 47% | 
Fc1ccc(-c2ccnc3[nH]c(C(F)(F)F)nc23)c(F)c1 | 11 µM | 36% | 
Fc1ccc(-c2ccnc3[nH]c(C(F)(F)F)nc23)cc1 | 4.4 µM | 6% | 
FC(F)(F)c1cccc(Oc2ccc3nc(C(F)(F)F)[nH]c3n2)c1 | 1.8 µM | 19% | 
Fc1ccccc1Oc1ccnc2[nH]c(C(F)(F)F)nc12 | 58 µM | 12% | 
FC(F)(F)c1cccc(Oc2ccnc3[nH]c(C(F)(F)F)nc23)c1 | 3.7 µM | 20% | 
Cc1ccnc2[nH]c(C(F)(F)F)nc12 |  |  | EC50 ([1]; l6): Not_active
Cc1ccc(-c2ccnc3[nH]c(C(F)(F)F)nc23)cc1 |  |  | EC50 ([1]; l6): Not_active
FC(F)(F)c1nc2c(-c3cc(Cl)cc(Cl)c3)ccnc2[nH]1 | 1.1 µM | 76% | half-life [3]: 25.3 h; Cmax [9]: 13 µM
